In assay [1] the target is T1, human beta-3-adrenoceptor (Homo sapiens, UniProt P13945).
T1 construct: whole-cell cAMP accumulation, potency relative to isoprenaline
Nature of the assay: cAMP accumulation in CHO cells transfected with the human beta-3-adrenoceptor (Method 1), potency relative to isoprenaline. Conditions: relative potency of test agonist compared to isoprenaline (EC50 ratio), H β3 CHO cells. It is filed as cell-based. As to the method:
[…] The cell lines may also be transfected with human beta-1- and beta-2- adrenoceptor in a similar manner to provide a method of determining the selectivity of the compounds of the invention at the three receptors.
General cell culture guidelines are observed (Fershney, R. A. (1987) Culture of animal cells: A manual of basic technique. Wiley-Liss, Inc., N.Y.). A standard cell culture incubator is used (37° C., 5% CO2 in air, 95% relative humidity). H β3 CHO cells are grown in 75 ml flasks in MEMα medium containing 9% FCS & 125 μg/ml G418. One confluent flask of cells is trypsinised and resuspended in 80 ml of culture medium; 1 ml of the cell suspension is added to each well of three 24-well plates. The plates are then incubated for 1 day.
The medium is aspirated from each well, and the well rinsed with phosphate-buffered saline (PBS, this is then aspirated). 1 ml of MEMα (no FCS or G418, 300μ M IBMX) is added to each well. Antagonists, if required, are added at this stage. The plate is then placed back in the incubator for 30 min. Drugs are then added to the wells (10 μl, 100x required final concentration), the plate gently swirled to mix the drugs, and the plate placed back in the incubator for 30 min. The medium is then aspirated from each well, the well rinsed with PBS, and 0.5 ml perchloric acid (6% v/v in distilled water, 2-5° C.). The plate is left on ice for 30 min. The perchloric acid (containing cAMP) is transferred to a clean 24-well plate and the acid neutralised by addition of saturated KHCO3 solution (200 μl) to each well. The plate is then swirled and frozen (-20° C.) until cAMP is assayed. cAMP is assayed using an enzyme-immunoassay kit (Amersham).
The relative potency of each test agonist (EPMR) is compared to isoprenaline as follows: [formula] wherein EC50 is the molar concentration of agonist which produces 50% of the maximum possible response for that agonist.

Assay [2] has as its system indomethacin-induced antral damage. Nature of the assay: Protective effect on indomethacin-induced gastric antral lesions in the re-fed rat (Method 2). Conditions: po, rats dosed orally 30 minutes before indomethacin 60 mg/kg s.c., antral damage assessed at 6 hours post dose. It is filed as in vivo. Here is the method:
[…] The procedure is based upon that described by H. Satoh et. al., Gastroenterology, 81, 719-725 (1981) in which the effect of compounds on indomethacin-induced gastric antral lesions in the re-fed rat is investigated. Indomethacin is an example of the class of compound known as non-steroidal anti-inflammatory drugs (NSAIDs), the use of which is frequently associated with gastrointestinal ulcers.
Food (but not water) is withheld from female random hooded rats (70-120 g) for 24 hours and then the rats are re-fed with Rat and Mouse No. 1 Maintenance Diet. After 1 hour of access to food, the rats are dosed orally with either the test compound or solvent (0.5% w/v methyl cellulose in water). […]
The rat's stomach is removed (with a small amount of duodenum attached), opened along the greater curvature and the contents removed by washing with 0.9% w/v sodium chloride solution (saline). The opened stomach is pinned out (mucosal surface uppermost) on a polystyrene mat and the area of damage assessed by placing a grid (composed of 1 mm squares) over the antral region. […] The total area of antral damage is then expressed as a percentage of the total surface area of the antrum.
The protective effect of the test compound on indomethacin-induced antral damage is calculated as a percentage using the following equation: [formula]

Counter-ions that a name gives are not always drawn.

The results in this text go back to patent US6048872A, “Arylethanolamine derivatives and their use as agonists of atypical beta-adrenoceptors” (Glaxo Wellcome Inc., priority 1995, dated 2000).

T1 sequence (P13945 whole entry): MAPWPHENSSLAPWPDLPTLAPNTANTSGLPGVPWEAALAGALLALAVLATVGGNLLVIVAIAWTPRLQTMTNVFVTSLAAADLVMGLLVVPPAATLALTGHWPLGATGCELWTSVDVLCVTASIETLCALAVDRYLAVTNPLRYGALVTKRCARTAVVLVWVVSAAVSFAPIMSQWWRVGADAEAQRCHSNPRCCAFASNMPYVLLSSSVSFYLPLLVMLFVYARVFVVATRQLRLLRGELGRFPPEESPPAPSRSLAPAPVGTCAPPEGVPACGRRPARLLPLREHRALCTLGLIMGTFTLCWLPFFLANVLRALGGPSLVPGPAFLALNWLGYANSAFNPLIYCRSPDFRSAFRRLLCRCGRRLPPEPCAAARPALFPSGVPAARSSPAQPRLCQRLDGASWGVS

The ED50 is the dose that gives a 50% effect, or the effect in half of the subjects. Read a low ED50 as an effect at a small dose. In the case of `C[C@H](CNc1ccc(CC(=O)O)c(F)c1F)NC[C@H](O)c1cccc(Cl)c1` [Example 7, (4-{2R-[2-(3-Chloro-phenyl)-2R-hydroxyl-ethylamino]-propylamino}-2,3-difluoro-phenyl)-acetic acid], in assay [1], the EPMR is reported as 0.2. In assay [2], this compound showed an ED50 of 3 µg/kg.

For `COc1cc(NC[C@@H](C)NC[C@H](O)c2cccc(Cl)c2)c(Cl)cc1CC(=O)O` [Example 8, (5-Chloro-4-{2R-[2-(3-chloro-phenyl)-2R-hydroxy-ethylaminol-propylamino}-2-methoxy-phenyl)-acetic acid dihydrochloride], in assay [1], the EPMR is 0.4.

Turning to `C[C@H](CNc1cc(F)c(OCC(=O)O)c(F)c1)NC[C@H](O)c1cccc(Cl)c1` [Example 15, (4-{2R-[2-(3-Chloro-phenyl)-2R-hydroxy-ethylamino]-propylamino}-2,6-difluoro-phenoxy)-acetic acid], the EPMR in assay [1] is listed as 6.0.
